Data taken from publication PMC10016038, “Enhanced Endosomal Signaling and Desensitization of GLP-1R vs GIPR in Pancreatic Beta Cells” (Endocrinology, 2023).

Experiments:
SNAP-tagged human GIPR [1] = experiment: High-content microscopy internalization, SNAP-GIPR; assay type: cell-based; settings: BG-S-S-649, 30 min, 37 °C, respective endogenous agonists, n = 5
Procedure: The assay was performed as previously described ([21]). The INS-1 832/3 SNAP-GLP-1R or SNAP-GIPR cells were seeded into poly-D-lysine-coated, black 96-well plates. On the day of the assay, labeling was performed with BG-S-S-649 (1 µM), a surface-labeling SNAP-tag probe that can be released on application of reducing agents such as Mesna. After washing, treatments were applied for 30 minutes at 37 °C in complete medium. Ligand was removed and cells washed with cold HBSS and placed on ice for subsequent steps. Mesna (100 mM in alkaline TNE buffer, pH 8.6) or alkaline TNE buffer without Mesna was applied for 5 minutes, and then washed with HBSS. Cells were imaged by widefield microscopy, with both epifluorescence and transmitted phase contrast images acquired. On imaging completion, HBSS was removed and replaced with fresh complete medium, and receptor was allowed to recycle for 60 minutes at 37 °C, followed by a second Mesna application to remove any receptor that had recycled to the plasma membrane, with the plate re-imaged as above. Internalized receptor at each time point was determined from cell-containing regions as determined from the phase contrast image using […] ([22]) and used to determine internalization and recycling parameters as previously described ([21]). […]

SNAP-tagged human GIPR [2] = experiment: Colocalization with SNX27-GFP, SNAP-GIPR; assay type: cell-based; settings: 3 hours stimulation with 100 nM
GIPR-NanoLuc = experiment: Rab5-Venus bystander NanoBRET (early endosome), GIPR; assay type: cell-based; settings: n = 5
Excerpt: GLP-1R-NanoLuc was generated in house by polymerase chain reaction (PCR) cloning of the NanoLuciferase sequence from pcDNA3.1-ccdB-NanoLuc (a gift from Prof. Mikko Taipale; Addgene plasmid # 87067) onto the C-terminus end of the SNAP-GLP-1R vector (CisBio), followed by site-directed mutagenesis of the GLP-1R stop codon. GIPR-NanoLuc was subsequently cloned in house by exchanging the GLP-1R for the GIPR in the GLP-1R-NanoLuc construct. KRAS- and Rab5-Venus plasmids were a gift from Prof. Kevin Pfleger, University of Western Australia. The INS-1 832/3 GLP-1R KO and GIPR KO cells were seeded in 12-well plates and co-transfected with 0.2 µg KRAS-Venus and 0.1 µg GLP-1R- or GIPR-NanoLuc, respectively, or 0.5 µg Rab5-Venus and 0.1 µg GLP-1R- or GIPR-NanoLuc, respectively.
All NanoBiT and NanoBRET readings were obtained in a Flexstation 3 plate reader. Briefly, 24 hours after transfection, cells were detached, resuspended in NanoGlo Live Cell Reagent (Promega) with furimazine (1:20 dilution) and seeded into white 96-well half-area plates. […] Readings were normalized to well baseline and then to average vehicle-induced signal to establish the agonist-induced effect. AUCs from response curves were calculated for each agonist concentration and fitted to four-parameter curves using Prism 9 (GraphPad).
Figure 2. Endosomal vs plasma membrane localization of GLP-1R compared with GIPR in beta cells. […]

[3] = test system: calcium response in purified WT mouse islets; experiment: Calcium assay, WT mouse islets; assay type: cell-based; settings: Cal-520 AM; 100 nM; n = 4
Procedure: Nondiabetic mice of both sexes were used for islet isolation. Briefly, pancreata were infused via the common bile duct with RPMI-1640 medium containing 1 mg/mL collagenase from Clostridium histolyticum (Nordmark Biochemicals), dissected, and incubated in a water bath at 37 °C for 10 minutes. Islets were subsequently washed and purified using a Histopaque gradient (Histopaque-1119, 11191, Sigma-Aldrich, and Histopaque-1083, 10831, Sigma-Aldrich). Isolated islets were allowed to recover overnight at 37 °C in 5% CO2 in RPMI-1640 supplemented with 10% FBS and 1% penicillin/streptomycin. […]
Imaging of INS-1 832/3 cells or whole-islet Ca^2+ dynamics was performed as follows: cells or Matrigel-encased islets from individual animals were loaded with the Ca^2+ responsive dye Cal-520 AM (AAT Bioquest), pre-incubated for 1 hour in KRBH G6, and imaged in MatTek glass bottom dishes every 6 second at 488 nm using a Nikon Eclipse Ti microscope with an ORCA-Flash 4.0 camera (Hamamatsu) and Metamorph software (Molecular Devices) while maintained at 37 °C on a heated stage. Raw fluorescence intensity traces from cell-occupied areas or islet ROIs were extracted using Fiji. Responses were plotted relative to the average fluorescence intensity during the 6 mM glucose baseline period, before agonist addition. […]

[4] = test system: INS-1 832/3 GLP-1R KO cells; experiment: Insulin secretion assay, GLP-1R KO cells; assay type: cell-based, rat; settings: 100 nM, 11 mM glucose; n = 5
Procedure: At the end of the treatments, the supernatant containing the secreted insulin was collected, centrifuged at 1000g for 3 minutes, and transferred to a fresh tube. To determine total insulin content, cells were lysed using KRBH buffer + 1% w/v BSA + 1% v/v Triton X-100 (Sigma). The lysates were sonicated 3 × 10 seconds in a water bath sonicator and centrifuged at 10 000g for 10 minutes, and the supernatants collected. The samples were stored at −20 °C until the insulin concentration was determined using an Insulin Ultra-Sensitive HTRF Assay kit (62IN2PEG, Cisbio, Codolet, France) according to the manufacturer's instructions.
Figure 7. Functional analysis of GLP-1R vs GIPR signaling in beta cells. […] Data are mean ± SEM, compared by paired t tests; *P < .05; ns, nonsignificant.

Row | Substance | Internalization of GIPR compared with GLP-1R (SNAP-tagged human GIPR [1]) | SNAP-GIPR colocalization with SNX27 (SNAP-tagged human GIPR [2]) | Agonist-mediated redistribution of GIPR to Rab5-positive early endosomes (GIPR-NanoLuc) | Calcium influx, GIP vs GLP-1, primary islets [3] | Insulin secretion response in GLP-1R KO cells [4]
1 | GIP(1-42) | significantly less internalization | sustained | virtually absent | significant increase | 
2 | GLP-1(7-36)NH2 |  |  |  |  | abolished
